Reference: patent publication US20060094737A1, “Novel uracil derivatives and medicinal use thereof” (Sumitomo Pharmaceuticals CO. Ltd., priority 2002, published 2006)

Experiments:
[1] = test system: dermatitis induced by picryl chloride (type IV allergic inflammation); experiment: Inhibitory effect on dermatitis induced by picryl chloride, oral administration; assay type: in vivo, ICR strain male mice; settings: oral 10 mg/kg in 0.5% CMC-Na one hour before the causing; relative to comparative compound 1 oral 100 mg/kg
Method: The effect on the animal model in Evaluation Example 1 was verified by oral administration. ICR strain male mice were sensitized in the same manner as in Evaluation Example 1, and on the seventh days after the sensitization, 0.02 ml of a 1% (w/v) picryl chloride/acetone solution was applied on the ear of each mouse to cause an allergic reaction. Each test compound was suspended in a 0.5% CMC-Na solution and orally administered in a dose of 10 mg/kg one hour before the causing of the allergic reaction. As a comparative example, the above-mentioned comparative compound 1 disclosed in Japanese Patent No. 3093170 was orally administered in a dose of 100 mg/kg to make a comparison.

[2] = test system: itch-related behavior induced by substance P; experiment: Inhibitory effect on the itch-related behavior of mice induced by substance P; assay type: in vivo, BALB/c strain male mice; settings: frequency counted for 60 minutes, vs 0.5% CMC-Na group
Method: It has been reported that in the lesion part of a patient with atopic dermatitis, there are observed an increase in nerve fiber containing substance P (SP), a nerve peptide (Tobin D et al., J Allergy Clin immunol, 90, 613-22(1992)) and an increase in reactivity with SP (Gianetti A et al. Br J Dermatol, 121, 681-8(1989)). On the other hand, it has been reported that when SP is administered to the cervicodorsal part of a mouse, itch-related behavior is induced (Kuraishi Y et al. Eur J Pharmacol, 275, 229-33(1995)) and is suppressed by a certain antiallergic agent (Inagaki N et al. Eur J Pharmacol, 400, 73-9(2000)). Therefore, in order to verify the itch-inhibiting effect of the uracil derivatives of the present invention, the itch-inhibiting effect was evaluated by employing the effect of the uracil derivatives on itch-related behavior induced by SP, as an indication. Each of BALB/c strain male mice was previously transferred to a cage for observation and allowed to acclimate to an observation environment, and then SP was subcutaneously administered (200 μg/mouse) to the cervicodorsal part of the mouse. After the administration, the mouse was returned to the cage for observation and the frequency of its itch-related behavior was measured for 60 minutes after the return. Each test drug was suspended in a 0.5% CMC-Na solution and orally administered in a dose of 10 mg/kg 30 minutes before the administration of SP. For evaluating the itch-inhibiting effect, the inhibition rate of the test drug was calculated as an indication as follows by comparison with a group treated with a 0.5% CMC-Na solution. As a comparative example, an antiallergic agent Oxatomide, which is considered as an agent having itch-inhibiting effect, was administered in a dose of 3 times that of the test drug (30 mg/kg). [formula]

[3] = test system: dermatitis induced by picryl chloride (type IV allergic inflammation); experiment: Inhibitory effect on dermatitis induced by picryl chloride, test compound applied on the ear; assay type: in vivo, ICR strain male mice; settings: 0.04 ml of 0.25% (w/v) test compound/acetone on the ear; ear thickness 24 hours after the causing; relative to 2.5% (w/v) comparative compound 1 (10 times the amount)
Method: In order to verify the inflammation-inhibiting effect of the uracil derivative of the present invention, its effect on dermatitis induced by picryl chloride, a model of typical type IV allergic inflammation was evaluated by adopting the method of Asherson et al. (Immunology, 15, 405 (1968)). On the abdominal skin of each of ICR strain male mice was applied 0.1 ml of a 7% (w/v) picryl chloride/acetone solution to induce sensitization. On the seventh days after the sensitization, 0.02 ml of a 1% (w/v) picryl chloride/acetone solution was applied on the ear of each mouse to cause an allergic reaction. […] Twenty-four hours after the causing, the thickness of the ear was measured and the dermatitis-inhibiting effect of the test compound was evaluated by employing the difference between the thickness of the ear 24 hours after the causing and that before the causing as an indication. […]
From the difference of the ear thickness before and after the causing of the allergic reaction in the case of each group, the relative degree of efficacy of the test compound in the inhibition of ear enlargement was calculated according to the following equation by comparison with a group treated with the comparative compound in an amount of 10 times that of the test compound: [formula]

[4] = oral 10 mg/kg 30 minutes before SP (200 μg/mouse s.c.)

| Structure (SMILES) | Degree of efficacy (relative degree of efficacy in the inhibition of ear enlargement) [1] | other results |
| --- | --- | --- |
| CCn1c(=O)c(NC(=O)c2c(C)c(O)c(C)c3c2OC(C)(C)CC3)c(N)n(-c2cccnc2OC)c1=O [Example 10, 6-amino-3-ethyl-5-(6-hydroxy-2,2,5,7-tetramethylchroman-8-carboxamide)-1-(2-methoxypyridin-3-yl)uracil] | 1.6 |  |
| Cc1c(O)c(C)c(C(=O)Nc2c(N)n(-c3cccc4c3CCCC4)c(=O)n(C)c2=O)c2c1CC(C)(C)O2 [Example 22, 6-amino-3-methyl-5-(6-hydroxy-2,2,5,7-tetramethyl-3-oxaindan-4-carboxamide)-1-(5,6,7,8-tetrahydro-1-naphthyl)uracil] | 1.3 |  |
| Cc1cccc(-n2c(N)c(NC(=O)COc3cc(C)c(N)c(C)c3C)c(=O)n(C)c2=O)c1C [Example 29, 6-amino-5-[(4-amino-2,3,5-trimethyl)phenoxy]acetamide-3-methyl-1-(2,3-dimethylphenyl)uracil] | 1.4 |  |
| Cc1c(O)c(C)c(C(=O)Nc2c(N)n(-c3cccc4ccccc34)c(=O)n(C)c2=O)c2c1CCC(C)(C)O2 [Example 2, 6-amino-5-(6-hydroxy-2,2,5,7-tetramethyl-chroman-8-carboxamide)-3-methyl-1-(1-naphthyl)uracil] |  | Inhibition rate (%) of itch-related behavior [2, 4]: 71% |
| O=c1[nH]c2ccccc2n1CCCN1CCN(C(c2ccccc2)c2ccccc2)CC1 [Oxatomide, reference compound] |  | Inhibition rate (%) of itch-related behavior ([2]; oral 30 mg/kg 30 minutes before SP (200 μg/mouse s.c.)): 39% |
| Cc1cc(OCC(=O)Nc2c(N)n(-c3cccc4ccccc34)c(=O)n(C)c2=O)c(C)c(C)c1O [Example 4, 6-amino-5-[(4-hydroxy-2,3,5-trimethyl)phenoxy]acetamide-3-methyl-1-(1-naphthyl)uracil] |  | Degree of efficacy (relative degree of efficacy in the inhibition of ear enlargement) [3]: 0.9 |
| Cc1cc(OCC(=O)Nc2c(N)n(-c3cccc4ccccc34)c(=O)n(C)c2=O)c(C)c(C)c1N [Example 5, 6-amino-5-[(4-amino-2,3,5-trimethyl)phenoxy]acetamide-3-methyl-1-(1-naphthyl)uracil] |  | Degree of efficacy (relative degree of efficacy in the inhibition of ear enlargement) [3]: 1.1; Inhibition rate (%) of itch-related behavior [2, 4]: 53% |
| CCCCn1c(=O)c(NC(=O)c2c(C)c(O)c(C)c3c2OC(C)(C)C3)c(N)n(-c2cccc3ccccc23)c1=O [Example 14, 6-amino-3-butyl-5-(6-hydroxy-2,2,5,7-tetramethyl-3-oxaindan-4-carboxamide)-1-(1-naphthyl)uracil] | 1.0 |  |
| CNc1c(NC(=O)COc2cc(C)c(N)c(C)c2C)c(=O)n(C)c(=O)n1-c1cccc(C)c1C [Example 30, 6-methylamino-5-[(4-amino-2,3,5-trimethyl)phenoxy]acetamide-3-methyl-1-(2,3-dimethylphenyl)uracil] | 1.6 |  |
| CCn1c(=O)c(NC(=O)c2c(C)c(O)c(C)c3c2OC(C)(C)C3)c(N)n(-c2cccc3c2CCC3)c1=O [Example 20, 6-amino-3-ethyl-5-(6-hydroxy-2,2,5,7-tetramethyl-3-oxaindan-4-carboxamide)-1-(4-indanyl)uracil] | 1.2 |  |
